The source of these data is PubChem BioAssay (NCI).

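These data come from cells grown in 96-well plates and exposed to compound for 48 hours at five concentrations. At the GI50, growth is halved. At the TGI there is no net growth.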

Assay in all cases: growth of human tumour cells (NCI), 48 h
Experiment [1] has as its system PC-3 prostate.
The test system of experiment [2] is MOLT-4 leukemia.
For experiment [3], the system named is BT-549 breast.
The subject of experiment [4] is HCT-15 colon.
In experiment [5] the test system is SNB-19 CNS.
The test system of experiment [6] is CCRF-CEM leukemia.
In experiment [7] the test system is HL-60(TB) leukemia.
For experiment [8], the system named is MDA-MB-231 breast.
Experiment [9] concerns HCC-2998 colon.
The subject of experiment [10] is K-562 leukemia.

Consider `O=c1c(I)c[nH]cc1I`, for which the GI50 in [1], in experiment [2], in experiment [3], in [4], in experiment [5] and in [6] was over 100 µM in each case. Also, the GI50 in experiment [7], in [8], in experiment [9] and in experiment [10] was over 100 µM in each case. Further, the TGI in [1], in [2], in [3], in experiment [4], in experiment [5] and in experiment [6] was over 100 µM each time. Also, the TGI in [7], in [8], in [9] and in [10] was over 100 µM each time.

Turning to `Cc1ccc(-c2nc(NCCOCCOCCN)nc(N3CCN(c4ccccn4)CC3)n2)cc1`, the GI50 in experiment [1] is 15.5 µM; in [2], 15.8 µM; in [3] it was 14.1 µM; in experiment [4], 10.1 µM; in experiment [5], 16.9 µM; in [6] it was 14.1 µM. For the same compound, the GI50 in experiment [7] was 18.7 µM; in experiment [8], 14.1 µM; in experiment [9], 8.01 µM; in [10], 9.18 µM. In addition, the TGI worked out at 31 µM in experiment [1]; 36 µM in experiment [2]; 29.2 µM in experiment [3]; 29.8 µM in experiment [4]; 34.9 µM in [5]; 37.1 µM in experiment [6]. Moreover, the TGI in [7] was 40.5 µM; in [8], 29.8 µM; in experiment [9], 21.9 µM; in [10] it was 24.6 µM.

As for `CNC(=O)CCN1CCN(CC/C=C2\c3ccccc3Sc3ccc(Cl)cc32)CC1`, the GI50 in [1] was 9.07 µM; in [2], 6.56 µM; in experiment [3], 10.7 µM; in experiment [4], 6.57 µM; in experiment [5], 16 µM; in experiment [6], 6.31 µM. The GI50 is 4.33 µM in experiment [7], 10.6 µM in [8], 7.94 µM in experiment [9] and 4.2 µM in experiment [10]. For the same compound, the TGI in experiment [1] was over 45 µM; in experiment [2] it was over 34.1 µM; in [3], 24 µM; in experiment [4], 20.6 µM; in experiment [5], 30.7 µM; in experiment [6], 44.8 µM. In addition, the TGI in experiment [7] is over 41.1 µM; in [8], 24.7 µM; in [9] it was 24.2 µM; in [10] it was over 37.1 µM.

For `CCSC[C@@H]1C[C@](O)(c2ccccc2)[C@@H](c2ccccc2)O1`, the GI50 in experiment [1] is 56.7 µM; in experiment [2] it was 7.18 µM; in experiment [3], 89.1 µM; in experiment [4], 82.1 µM; in [5] it was over 100 µM; in experiment [6], over 71.5 µM. In addition, the GI50 in experiment [7] is 9.84 µM; in experiment [8], over 95 µM; in experiment [9], over 100 µM; in experiment [10], 12.3 µM. Also, the TGI in [1] is over 100 µM; in experiment [2], over 23.7 µM; in [3], over 100 µM; in [4], over 100 µM; in [5] it was over 100 µM; in experiment [6], over 100 µM. In addition, the TGI in [7] was over 50.7 µM; in experiment [8] it was over 100 µM; in [9], over 100 µM; in [10], over 100 µM.

With `Cn1c(=O)c(-c2ccccc2Cl)cc2cnc(NC3CCOCC3)nc21`, the GI50 in experiment [1] is 21.4 µM; in experiment [2] it was 10.2 µM; in [3], over 25 µM; in [4] it was 9.82 µM; in experiment [5], over 25 µM; in experiment [6], 14.8 µM. In addition, the GI50 in experiment [7] is 10.5 µM; in experiment [8], 7.69 µM; in experiment [9], over 21.8 µM; in experiment [10] it was 9.36 µM. The TGI in experiment [1], in experiment [2], in [3], in experiment [4], in experiment [5] and in experiment [6] was over 25 µM each time. Also, the TGI in [7], in experiment [8], in experiment [9] and in experiment [10] was over 25 µM each time.

As to `CC[C@H](C)[C@H](NC(=O)C12C3C4C1C1C2C3C41NC)C(=O)N(C)[C@H](C[C@@H](OC(C)=O)c1nc(C(=O)N[C@@H](Cc2ccccc2)C[C@H](C)C(=O)OC)cs1)C(C)C` (stereo partly drawn), the GI50 was 0.645 µM in experiment [1]; 0.713 µM in experiment [2]; 0.214 µM in experiment [3]; 1.27 µM in experiment [4]; 0.701 µM in experiment [5]; 0.445 µM in experiment [6]. The GI50 in experiment [7] was 0.0568 µM; in [8] it was 0.798 µM; in [9], 0.369 µM; in [10], 0.219 µM. Moreover, the TGI was over 14.3 µM in experiment [1]; over 14.3 µM in experiment [2]; 3.51 µM in experiment [3]; over 14.3 µM in experiment [4]; over 14.3 µM in [5]; over 14.3 µM in experiment [6]. The TGI is 0.346 µM in experiment [7], over 13 µM in experiment [8], over 14.3 µM in experiment [9] and over 14.3 µM in experiment [10].

As to `N=C(N)c1ccc2oc3ccc(C(=N)N)cc3c(=O)c2c1`, the TGI in [1], in experiment [2], in experiment [3], in experiment [4], in [5] and in experiment [6] was over 100 µM throughout. Besides, the TGI in [7], in experiment [8], in experiment [9] and in [10] was over 100 µM in each case.

For `COC1C(OC(=O)c2ccc(C)[nH]2)C(O)C(Oc2ccc3c(O)c(NC(=O)c4ccc(O)c(CC=C(C)C)c4)c(=O)oc3c2Cl)OC1(C)C` (stereo not drawn), the TGI in [1] stood at 29.3 µM; in experiment [2], 45.8 µM; in experiment [3], 42.5 µM; in experiment [4], 38.1 µM; in experiment [5], 30 µM; in experiment [6] it was 58.9 µM. The TGI in experiment [7] is over 100 µM; in [8] it was 49.4 µM; in [9] it was 33.2 µM; in experiment [10] it was over 100 µM.

Regarding `COc1cc(-c2nc(-c3ccccc3)c(-c3ccccc3)[nH]2)cc(OC)c1O`, the GI50 in [1] is 17.9 µM; in experiment [2], 17.1 µM; in [3] it was 19.5 µM; in experiment [4] it was 13.3 µM; in experiment [5], 20.8 µM; in experiment [6] it was 23.4 µM. Besides, the GI50 in experiment [7] was 31.5 µM; in [8] it was 16.7 µM; in [9], 17.1 µM; in experiment [10], 21 µM. Moreover, the TGI in experiment [1] is 50.2 µM; in [2], 64.9 µM; in experiment [3] it was 39.5 µM; in [4] it was 41.4 µM; in experiment [5], 52.9 µM; in experiment [6] it was 70.4 µM. Also, the TGI in experiment [7] is over 100 µM; in experiment [8], 34.2 µM; in [9], 32.7 µM; in experiment [10], over 100 µM.

Turning to `CC(C)(O)C1COC2=C1C(=O)c1ccccc1C2=O` (stereo not drawn), the TGI in experiment [1] was over 100 µM; in experiment [2], 71.2 µM; in [3] it was 42.9 µM; in [4] it was over 100 µM; in experiment [5] it was over 100 µM; in experiment [6] it was over 100 µM. For the same compound, the TGI in [7] is 44.9 µM; in experiment [8], over 100 µM; in experiment [9] it was over 100 µM; in experiment [10] it was over 100 µM.

`Clc1ccc2c(NCCNc3nc(N4CCOCC4)nc4ccccc34)ccnc2c1`: the GI50 is 4.5 µM in experiment [1]; 3.33 µM in experiment [2]; 2.07 µM in experiment [3]; 2.49 µM in experiment [4]; 2.59 µM in experiment [5]; 1.67 µM in [6]. Also, the GI50 was 1.09 µM in [7], 1.56 µM in experiment [8], 2.67 µM in experiment [9] and 0.892 µM in [10]. Besides, the TGI is 17.1 µM in experiment [1]; 14.1 µM in [2]; 4.69 µM in experiment [3]; 8.47 µM in [4]; 8.78 µM in experiment [5]; 11.7 µM in [6]. Moreover, the TGI stood at 3.12 µM in experiment [7], 3.63 µM in [8], 6.54 µM in experiment [9] and 13.1 µM in experiment [10].

Take `O=c1[nH]c2cc(Cl)ccc2nc1/C(=N\Nc1ccccc1)C(O)c1ccc2c(c1)OCO2` (stereo not drawn): the TGI in experiment [1], in [2], in experiment [3], in [4], in experiment [5] and in experiment [6] was over 100 µM throughout. The TGI in experiment [7], in experiment [8], in experiment [9] and in experiment [10] was over 100 µM throughout.

Turning to `CCc1ccc2c(c1)C(=O)c1c-2n(CCCN)c(=O)c2cc(OC)c(OC)cc12`, the GI50 in experiment [1] was 1.54 µM; in [2] it was 1.75 µM; in [3], 1.65 µM; in [4], 1.59 µM; in [5], 1.85 µM; in experiment [6], 1.1 µM. The GI50 is 1.37 µM in experiment [7], 1.63 µM in experiment [8], 1.63 µM in experiment [9] and 0.306 µM in experiment [10]. Further, the TGI in [1] is 2.92 µM; in [2], 3.52 µM; in experiment [3], 3.17 µM; in experiment [4], 3.01 µM; in experiment [5] it was 3.46 µM; in [6], 2.48 µM. Further, the TGI in experiment [7] was found to be 3.47 µM; in [8] it was 3.14 µM; in experiment [9], 3.05 µM; in experiment [10] it was 0.907 µM.

In the case of `COc1ccc2nc3ccccc3c(NCCNCCO)c2c1`, the GI50 in [1] was 0.554 µM; in experiment [2], 0.393 µM; in experiment [3], 1.01 µM; in [4] it was 2.04 µM; in [5] it was 0.661 µM; in experiment [6], 0.597 µM. For the same compound, the GI50 is 0.572 µM in experiment [7], 0.932 µM in experiment [8], 0.898 µM in [9] and 0.356 µM in experiment [10]. In addition, the TGI worked out at 3.79 µM in [1]; 3.77 µM in [2]; 4.29 µM in experiment [3]; 22.2 µM in experiment [4]; 6.9 µM in experiment [5]; 6.78 µM in experiment [6]. Further, the TGI in experiment [7] came out at 1.68 µM; in [8] it was 3.72 µM; in experiment [9], 2.5 µM; in [10], 4.33 µM.

`CCn1cc(C(=O)O)c(=O)c2cc(F)c(N3CCN(S(=O)(=O)c4ccc(Cl)cc4Cl)CC3)cc21`: the GI50 was 2.43 µM in [1]; 3.55 µM in experiment [2]; 2.64 µM in experiment [3]; 2.82 µM in experiment [4]; 3.07 µM in experiment [5]; 3.03 µM in [6]. The GI50 was 2.22 µM in [7], 1.88 µM in experiment [8], 2.29 µM in experiment [9] and 4 µM in experiment [10]. Also, the TGI was 10.7 µM in experiment [1]; over 100 µM in experiment [2]; 7.89 µM in experiment [3]; over 100 µM in experiment [4]; 20.6 µM in [5]; over 100 µM in experiment [6]. Moreover, the TGI in experiment [7] is 5.15 µM; in experiment [8] it was 4.7 µM; in [9], 5.17 µM; in [10], over 100 µM.

As to `[Br][Pb]([c]1ccccc1)([c]1ccccc1)[c]1ccccc1`, the GI50 in experiment [1] is 0.225 µM; in experiment [2], 0.22 µM; in experiment [3], 0.198 µM; in [4] it was 0.148 µM; in experiment [5], 0.221 µM; in experiment [6] it was 0.202 µM. Further, the GI50 in [7] was 0.19 µM; in [8] it was 0.208 µM; in [9] it was 0.191 µM; in experiment [10] it was 0.139 µM. Also, the TGI in experiment [1] is 0.515 µM; in [3], 0.541 µM; in experiment [4], 0.329 µM; in [5], 0.527 µM; in [6], over 100 µM; in [7], 0.498 µM. Besides, the TGI in experiment [8] amounted to 0.514 µM; in experiment [9] it was 0.412 µM.
